Source: PubChem BioAssay (NCI)
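Results reflect a 48-hour exposure of cells in 96-well plates to compound at five concentrations. GI50 is the concentration that inhibits growth by half. Definition used: TGI = concentration required for complete inhibition of growth.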

Assays:
Assay in all cases: growth of human tumour cells (NCI), 48 h
[1] = tested on: 786-0 renal
[2] = tested on: A498 renal
[3] = tested on: A549 NSCLC
[4] = tested on: ACHN renal
[5] = tested on: BT-549 breast
[6] = tested on: CAKI-1 renal
[7] = tested on: CCRF-CEM leukemia
[8] = tested on: COLO 205 colon
[9] = tested on: DU-145 prostate
[10] = tested on: EKVX NSCLC
[11] = tested on: HCC-2998 colon
[12] = tested on: HCT-116 colon
[13] = tested on: HCT-15 colon
[14] = tested on: HOP-62 NSCLC
[15] = tested on: HOP-92 NSCLC
[16] = tested on: HS 578T breast
[17] = tested on: HT29 colon
[18] = tested on: IGROV1 ovarian
[19] = tested on: K-562 leukemia
[20] = tested on: KM12 colon
[21] = tested on: LOX IMVI melanoma
[22] = tested on: M14 melanoma
[23] = tested on: MALME-3M melanoma
[24] = tested on: MCF7 breast
[25] = tested on: MDA-MB-231 breast
[26] = tested on: MDA-MB-435
[27] = tested on: MOLT-4 leukemia
[28] = tested on: NCI-H226 lung
[29] = tested on: NCI-H23 lung
[30] = tested on: NCI-H460 lung
[31] = tested on: NCI-H522 lung
[32] = tested on: NCI/ADR-RES ovarian
[33] = tested on: OVCAR-3 ovarian
[34] = tested on: OVCAR-4 ovarian
[35] = tested on: OVCAR-5 ovarian
[36] = tested on: OVCAR-8 ovarian
[37] = tested on: PC-3 prostate
[38] = tested on: RPMI-8226 leukemia
[39] = tested on: RXF 393 renal
[40] = tested on: SF-268 CNS
[41] = tested on: SF-295 CNS
[42] = tested on: SF-539 CNS
[43] = tested on: SK-MEL-2 melanoma
[44] = tested on: SK-MEL-28 melanoma
[45] = tested on: SK-MEL-5 melanoma
[46] = tested on: SK-OV-3 ovarian
[47] = tested on: SN12C renal
[48] = tested on: SNB-19 CNS
[49] = tested on: SNB-75 CNS
[50] = tested on: SR leukemia
[51] = tested on: SW-620 colon
[52] = tested on: T-47D breast
[53] = tested on: TK-10 renal
[54] = tested on: U251 CNS
[55] = tested on: UACC-257 melanoma
[56] = tested on: UACC-62 melanoma
[57] = tested on: UO-31 renal
[58] = tested on: HL-60(TB) leukemia

COC(=O)[C@H](CCSC)NC(=O)c1ccc(CNC(=O)/C=C/c2cccc(Oc3ccccc3)c2)cc1
TGI [1]: > 100 µM
TGI [2]: 48.3 µM
TGI [3]: > 100 µM
TGI [4]: > 100 µM
TGI [5]: > 100 µM
TGI [6]: > 80.3 µM
TGI [7]: > 100 µM
TGI [8]: 50.5 µM
TGI [9]: > 100 µM
TGI [10]: > 100 µM
TGI [11]: > 84 µM
TGI [12]: > 100 µM
TGI [13]: > 100 µM
TGI [14]: > 100 µM
TGI [15]: 28.1 µM
TGI [16]: > 100 µM
TGI [17]: > 100 µM
TGI [18]: > 73.2 µM
TGI [19]: > 78.8 µM
TGI [20]: > 100 µM
TGI [21]: > 100 µM
TGI [22]: 26.8 µM
TGI [23]: 37.8 µM
TGI [24]: > 100 µM
TGI [25]: > 83.5 µM
TGI [26]: 32.9 µM
TGI [27]: 33.4 µM
TGI [28]: > 62.9 µM
TGI [29]: > 92.1 µM
TGI [30]: > 100 µM
TGI [31]: > 100 µM
TGI [32]: > 100 µM
TGI [33]: > 93.6 µM
TGI [34]: > 90.6 µM
TGI [35]: > 100 µM
TGI [36]: > 100 µM
TGI [37]: > 100 µM
TGI [38]: > 100 µM
TGI [39]: 55.4 µM
TGI [40]: > 100 µM
TGI [41]: > 100 µM
TGI [42]: > 100 µM
TGI [43]: 32.8 µM
TGI [44]: 34.2 µM
TGI [45]: 34.5 µM
TGI [46]: > 100 µM
TGI [47]: > 100 µM
TGI [48]: > 100 µM
TGI [49]: > 100 µM
TGI [50]: > 100 µM
TGI [51]: > 100 µM
TGI [52]: 27 µM
TGI [53]: > 87 µM
TGI [54]: > 100 µM
TGI [55]: 26.9 µM
TGI [56]: 38.2 µM
TGI [57]: > 100 µM

Nc1ccccc1NC(=O)c1ccc(CSc2nc(N3CCOCC3)c3cccn3n2)cc1
GI50 [1]: 0.988 µM
TGI [1]: 5.48 µM
GI50 [2]: 1.09 µM
TGI [2]: 5.34 µM
GI50 [3]: 0.977 µM
TGI [3]: > 100 µM
GI50 [4]: 0.863 µM
TGI [4]: > 100 µM
GI50 [5]: 1.14 µM
TGI [5]: 4.59 µM
GI50 [7]: 0.246 µM
TGI [7]: > 100 µM
GI50 [8]: 1.07 µM
TGI [8]: 2.96 µM
GI50 [9]: 1.63 µM
TGI [9]: 37.7 µM
GI50 [10]: 1.08 µM
TGI [10]: > 100 µM
GI50 [11]: 2 µM
TGI [11]: 7.41 µM
GI50 [12]: 0.379 µM
TGI [12]: > 100 µM
GI50 [13]: 0.588 µM
TGI [13]: > 100 µM
GI50 [58]: 0.273 µM
TGI [58]: 0.961 µM
GI50 [14]: 1.49 µM
TGI [14]: 45.9 µM
GI50 [15]: 0.15 µM
TGI [15]: 0.991 µM
GI50 [16]: 0.781 µM
TGI [16]: > 100 µM
GI50 [17]: 0.411 µM
TGI [17]: 4.54 µM
GI50 [18]: 1.18 µM
TGI [18]: > 100 µM
GI50 [19]: 0.312 µM
TGI [19]: > 100 µM
GI50 [20]: 1.14 µM
TGI [20]: > 100 µM
GI50 [21]: 0.49 µM
TGI [21]: 3.22 µM
GI50 [22]: 0.756 µM
TGI [22]: > 100 µM
GI50 [23]: 0.834 µM
TGI [23]: > 100 µM
GI50 [24]: 0.335 µM
TGI [24]: > 100 µM
GI50 [25]: 0.806 µM
TGI [25]: 11.7 µM
GI50 [26]: 0.27 µM
TGI [26]: 1 µM
GI50 [28]: 1.26 µM
TGI [28]: 3.95 µM
GI50 [29]: 1.52 µM
TGI [29]: > 100 µM
GI50 [30]: 0.524 µM
TGI [30]: > 100 µM
GI50 [31]: 0.339 µM
TGI [31]: 2.09 µM
GI50 [32]: 0.445 µM
TGI [32]: > 100 µM
GI50 [33]: 1.05 µM
TGI [33]: 6.73 µM
GI50 [34]: 2.47 µM
TGI [34]: > 100 µM
GI50 [35]: 0.985 µM
TGI [35]: > 100 µM
GI50 [36]: 0.509 µM
TGI [36]: > 100 µM
GI50 [37]: 0.752 µM
TGI [37]: 41.4 µM
GI50 [38]: 0.311 µM
TGI [38]: 1.26 µM
GI50 [39]: 0.464 µM
TGI [39]: 2.51 µM
GI50 [40]: 0.732 µM
TGI [40]: 10.5 µM
GI50 [41]: 1.6 µM
TGI [41]: 17.2 µM
GI50 [42]: 0.773 µM
TGI [42]: > 100 µM
GI50 [43]: 0.314 µM
TGI [43]: 1.88 µM
GI50 [44]: 1 µM
TGI [44]: 31.3 µM
GI50 [45]: 0.415 µM
TGI [45]: 1.61 µM
GI50 [46]: 0.79 µM
TGI [46]: 6.43 µM
GI50 [47]: 1.38 µM
TGI [47]: > 100 µM
GI50 [48]: 2.67 µM
TGI [48]: > 100 µM
GI50 [49]: 0.32 µM
TGI [49]: 15.6 µM
GI50 [50]: 0.301 µM
TGI [50]: > 100 µM
GI50 [51]: 0.44 µM
TGI [51]: > 100 µM
GI50 [52]: 0.498 µM
TGI [52]: > 100 µM
GI50 [53]: 0.163 µM
TGI [53]: 1.61 µM
GI50 [54]: 0.565 µM
TGI [54]: 5.61 µM
GI50 [55]: 0.549 µM
TGI [55]: 4.54 µM
GI50 [56]: 0.412 µM
TGI [56]: 2.82 µM
GI50 [57]: 0.412 µM
TGI [57]: 3.61 µM
